Measurements reported in PubChem BioAssay (NCI).
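96-well plates; 48 h exposure; 5 concentrations. Endpoints by linear interpolation between flanking doses. Not reached: highest tested concentration assigned. TGI marks complete inhibition of growth.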

How the values were obtained:
Assay in all cases: DTP human tumour cell line panel, 48 h
CAKI-1 renal = test system: CAKI-1 renal
NCI-H460 lung = test system: NCI-H460 lung
SF-539 CNS = test system: SF-539 CNS
COLO 205 colon = test system: COLO 205 colon
A549 NSCLC = test system: A549 NSCLC
OVCAR-5 ovarian = test system: OVCAR-5 ovarian
SK-MEL-28 melanoma = test system: SK-MEL-28 melanoma
NCI-H23 lung = test system: NCI-H23 lung
SF-268 CNS = test system: SF-268 CNS
CCRF-CEM leukemia = test system: CCRF-CEM leukemia

Compound	TGI (CAKI-1 renal)	TGI (NCI-H460 lung)	TGI (SF-539 CNS)	TGI (COLO 205 colon)	TGI (A549 NSCLC)	TGI (OVCAR-5 ovarian)	TGI (SK-MEL-28 melanoma)	TGI (NCI-H23 lung)	TGI (SF-268 CNS)	TGI (CCRF-CEM leukemia)
C=CCC1C(=O)CC2(C)CC(=O)C(CC=C)C12C (stereo not given)	> 100 µM	> 100 µM	> 100 µM	> 100 µM	> 100 µM	> 100 µM	> 100 µM	> 100 µM	> 100 µM	> 100 µM
CCCSS[C@H]1NC(=O)[C@H]1NC(=O)COc1ccccc1	43.6 µM	31.4 µM	29.5 µM	25 µM	67.3 µM	> 100 µM	30.3 µM	31.9 µM	40.5 µM	19.1 µM
